Data as given in PubChem BioAssay (NCI).
Where “and” joins values, the source holds several entries; their conditions need not be identical. Identical values can stand only once.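 Protocol summary: plate cells (96-well), add compound at 5 concentrations, incubate 48 h, interpolate endpoints linearly. GI50 marks 50% less growth. TGI: total growth inhibition.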

Assays:
Assay in all cases: NCI anticancer screen, dose series, 48 h
[1] = tested on: A498 renal
[2] = tested on: BT-549 breast
[3] = tested on: HOP-62 NSCLC
[4] = tested on: KM12 colon
[5] = tested on: NCI/ADR-RES ovarian
[6] = tested on: OVCAR-4 ovarian
[7] = tested on: PC-3 prostate
[8] = tested on: SF-295 CNS
[9] = tested on: SK-MEL-28 melanoma
[10] = tested on: UACC-62 melanoma

Row | SMILES | GI50 [1] | TGI [1] | GI50 [2] | TGI [2] | GI50 [3] | TGI [3] | GI50 [4] | TGI [4] | GI50 [5] | TGI [5] | GI50 [6] | TGI [6] | GI50 [7] | TGI [7] | GI50 [8] | TGI [8] | GI50 [9] | TGI [9] | GI50 [10] | TGI [10]
1 | C#CCN(Cc1nc2cc(C(F)(F)F)ccc2nc1-c1ccccc1)c1ccc(F)cc1 | 38 µM | 92.8 µM | 48 µM | > 100 µM | 34.7 µM | > 100 µM | 21.3 µM | 60.9 µM | 29.1 µM | 84.7 µM | 33.4 µM | > 100 µM | 32 µM | > 100 µM | 51.4 µM | > 100 µM | 44.2 µM | > 100 µM | 25.5 µM | > 100 µM
2 | O=C(Nc1ccc(-n2ccc3c(NC(=O)c4ccccc4)nccc32)cc1)c1ccc(N2CCOCC2)c(C(F)(F)F)c1 | 2.19 µM | 26.6 µM | 4.73 µM | > 67.9 µM | 1.74 µM | 23.1 µM | 0.0707 µM | 18 µM | 0.198 µM | 29.9 µM | 7.09 µM | > 60.8 µM | 1.02 µM | 52.5 µM | 0.0621 µM | 1.7 µM | 0.275 µM | > 47.4 µM | 0.331 µM | 21.7 µM
3 | CCC(=O)Nc1ncnc2ncn(C(=O)CC)c12 | – | > 100 µM | – | > 100 µM | – | > 100 µM | – | > 100 µM | – | > 100 µM | – | > 100 µM | – | > 100 µM | – | > 100 µM | – | > 100 µM | – | > 100 µM
4 | COC(=O)[C@H](Cc1cn(C)cn1)NC(=O)[C@@H](NC(=O)Nc1cc(C(F)(F)F)cc(C(F)(F)F)c1)C(C)(C)C | > 10 µM | > 10 µM | > 10 µM | > 10 µM | > 10 µM | > 10 µM | > 10 µM | > 10 µM | > 10 µM | > 10 µM | > 10 µM | > 10 µM | > 10 µM | > 10 µM | > 10 µM | > 10 µM | > 10 µM | > 10 µM | > 10 µM | > 10 µM
5 | CSC1SCC2C(=O)N(C)C(C(C)C)C(=O)OCC(NC(=O)c3cnc4ccccc4n3)C(=O)NC(C)C(=O)N(C)C1C(=O)N(C)C(C(C)C)C(=O)OCC(NC(=O)c1cnc3ccccc3n1)C(=O)NC(C)C(=O)N2C (configuration not stated) | < 0.001 µM | – | < 0.001 µM | 0.0158 µM | < 0.001 µM | – | < 0.001 µM | – | 0.0238 µM | 0.222 µM and 1.16 µM and 1.41 µM | < 0.001 µM | – | – | 0.0132 µM and 0.0224 µM | < 0.001 µM | – | < 0.001 µM | – | < 0.001 µM | –
6 | O=C(O)CNC(=O)C1NC(C(F)(F)F)(C(F)(F)F)OC1(C(F)(F)F)C(F)(F)F (configuration not stated) | – | > 100 µM | – | > 100 µM | – | > 100 µM | – | > 100 µM | – | > 100 µM | – | > 100 µM | – | > 100 µM | – | > 100 µM | – | > 100 µM | – | > 100 µM
7 | CCCC(=O)Nc1c(I)cc(I)c(CC(CC)C(=O)O)c1I (configuration not stated) | > 100 µM | > 100 µM | > 100 µM | > 100 µM | > 100 µM | > 100 µM | > 100 µM | > 100 µM | > 100 µM | > 100 µM | > 100 µM | > 100 µM | > 100 µM | > 100 µM | > 100 µM | > 100 µM | > 100 µM | > 100 µM | > 100 µM | > 100 µM
8 | CCCCCCC(O)C(O)CCC(O)C1CCC(CCCCC(O)CC2=CC(C)OC2=O)O1 (configuration not stated) | – | 47.6 µM | – | 66.8 µM | 12.4 µM | 26 µM | 24.5 µM | 77.7 µM | 11 µM | 7.03 µM and 29.3 µM | – | 39.6 µM | 13.1 µM | 33.1 µM | 0.0305 µM | 20.1 µM | 26 µM | 62.5 µM | – | –
9 | CC(=Nc1ccccc1)C1=C(O)C(Cc2ccc(F)cc2)NC1=O (configuration not stated) | 0.444 µM | 5.04 µM | 0.879 µM | > 100 µM | 0.959 µM | > 100 µM | 0.4 µM | > 100 µM | 0.42 µM | 13.8 µM | 14.4 µM | > 100 µM | 0.894 µM | > 100 µM | – | – | 2.63 µM | > 100 µM | 0.664 µM | > 100 µM
10 | S=C1SCN(C2CCCCCCCCCCC2)CN1C1CCCCCCCCCCC1 | – | > 100 µM | – | > 100 µM | – | > 100 µM | – | > 100 µM | – | > 100 µM | – | > 100 µM | – | > 100 µM | – | > 100 µM | – | > 100 µM | – | > 100 µM
11 | CC(C)=CCc1c(O)c(C(=O)CC(C)C)c(O)c2c(-c3ccccc3)cc(=O)oc12 | 7.4 µM | 28.8 µM | 7.31 µM | > 50 µM | 15.4 µM | > 50 µM | 12 µM | > 50 µM | 9.25 µM | > 50 µM | 9.98 µM | 35.6 µM | 5.71 µM | 39.8 µM | 10 µM | 43.5 µM | 2.94 µM | > 50 µM | 2.2 µM | 13.5 µM
12 | CCCCCC(=C/c1ccccc1)/C=N/N=C(N)N | 0.621 µM | 1.99 µM | 1.65 µM | 3.02 µM | 1.63 µM | 3.31 µM | 1.43 µM | 2.82 µM | 1.53 µM | 3.3 µM | 1.46 µM | 2.84 µM | 1.4 µM | 2.92 µM | 1.67 µM | 3.49 µM | 1.65 µM | 3.06 µM | – | –
13 | C[C@H](C(O)CC(=O)C(C)(C)O)[C@H]1CC[C@@]2(C)[C@@H]3CC[C@H]4C(C)(C)[C@@H](OC5OC(COC6OC(CO)C(O)C(O)C6O)C(O)C(O)C5O)CC[C@]4(C)C3=CC[C@]12C (some centres not stated) | – | > 100 µM | – | > 100 µM | – | > 100 µM | – | > 100 µM | – | – | – | > 100 µM | – | > 100 µM | – | > 100 µM | – | > 100 µM | – | > 100 µM
14 | COc1ccccc1N1CCN(CCCOc2ccc(C(=O)/C=C3/C(=O)Nc4ccccc43)cc2)CC1 | 19.3 µM | 70.5 µM | 4.42 µM | 16.1 µM | 16.1 µM | 54.8 µM | 8.2 µM | 24.8 µM | 9.53 µM | 40.9 µM | 6.6 µM | 51.2 µM | 12 µM | > 100 µM | 12.5 µM | 32.4 µM | 14.6 µM | 33.4 µM | 11.9 µM | 28.4 µM
